Laboratory results published in patent publication US20170157010A1, “METHODS AND COMPOSITIONS FOR TREATMENT OF DISORDERS ASSOCIATED WITH DAMAGE INDUCED BY FREE RADICALS” (Glycadia, Inc., priority 2015, published 2017).
Where “and” joins values, the source holds several entries; their conditions need not be identical. Equal values may be shown once.

Tests used:
[1] = ABTS radical cation free radical scavenging (bleaching of absorbance at 734 nm); assay type: biochemical; details: ABTSY+ 450 micromolar, pH 7.4
From the text: A radical cation of 2,2′-azino-bis(3-ethylbenzthiazoline-6-sulfonic acid) diammonium salt (ABTS) was generated by oxidation with manganese dioxide, forming the blue-green radical cation ABTSY+ with spectrophotometric absorbance at 734 nanommeters (nm). The reaction was initiated by the addition of 23CPPA (5-40 micromolar) to ABTSY+ (450 micromolar) in phosphate buffer (75 millimolar, pH 7.4) and decay of the blue-green radical cation absorbance was monitored over time. Absorbance profiles were obtained with incubation in phosphate buffer (75 millimolar, pH 7.4) as control. The reaction of anti-oxidants with stable free radicals such as ABTSY+ that is generated from ABTS measures their free radical scavenging capacities.

[2] = Ultraviolet absorption spectrum; assay type: physicochemical
From the text: Ultraviolet (UV) absorption peaks of 2-(3-chlorophenylamino)phenylacetic acid at 211 and 283 nm, encompassing wavelength range of medium wave UVB (315-280 nm) and short wave UVC (280-190 nm).

[3] = Brain penetration following oral administration in rats (HPLC/MS/MS); assay type: in vivo; details: rat; sodium salt by gavage 15 and 60 mg/kg
Method: Rat hemi brains were obtained 1,4 and 6 hours after administration by gavage of the sodium salt of 23CPPA at doses of 15 and 60 mg/kg and were mixed with two equivalents of water and homogenized. The resulting homogenate was extracted with acetonitrile containing internal standard and concentrations of the compound were analyzed by high pressure liquid chromatography/two stage mass spectrometry (HPLC/MS/MS). Plasma samples also were collected from the same rats at these time points for measurement of plasma concentrations of the compound.

O=C(O)Cc1ccccc1Nc1cccc(Cl)c1 [23CPPA, 2-[(3-chlorophenyl)amino] phenylacetic acid]
Decay (% of starting absorbance) ([1]; 23CPPA 5 micromolar, 1 minute): 74 % of starting absorbance | Decay (% of starting absorbance) ([1]; 23CPPA 5 micromolar, 2 minutes): 72 % of starting absorbance | Decay (% of starting absorbance) ([1]; 23CPPA 5 micromolar, 3 minutes): 69 % of starting absorbance | Decay (% of starting absorbance) ([1]; 23CPPA 5 micromolar, 4 minutes): 67 % of starting absorbance | Decay (% of starting absorbance) ([1]; 23CPPA 5 micromolar, 5 minutes): 65 % of starting absorbance | Decay (% of starting absorbance) ([1]; 23CPPA 5 micromolar, 6 minutes): 63 % of starting absorbance | Decay (% of starting absorbance) ([1]; 23CPPA 5 micromolar, 7 minutes): 61 % of starting absorbance | Decay (% of starting absorbance) ([1]; 23CPPA 5 micromolar, 8 minutes): 60 % of starting absorbance | Decay (% of starting absorbance) ([1]; 23CPPA 5 micromolar, 9 minutes): 58 % of starting absorbance | Decay (% of starting absorbance) ([1]; 23CPPA 5 micromolar, 10 minutes): 56 % of starting absorbance | Decay (% of starting absorbance) ([1]; 23CPPA 5 micromolar, 11 minutes): 55 % of starting absorbance | Decay (% of starting absorbance) ([1]; 23CPPA 5 micromolar, 12 minutes): 53 % of starting absorbance | Decay (% of starting absorbance) ([1]; 23CPPA 5 micromolar, 13 minutes): 52 % of starting absorbance | Decay (% of starting absorbance) ([1]; 23CPPA 5 micromolar, 14 minutes): 51 % of starting absorbance | Decay (% of starting absorbance) ([1]; 23CPPA 5 micromolar, 15 minutes): 49 % of starting absorbance | Decay (% of starting absorbance) ([1]; 23CPPA 10 micromolar, 1 minute): 57 % of starting absorbance | Decay (% of starting absorbance) ([1]; 23CPPA 10 micromolar, 2 minutes): 56 % of starting absorbance | Decay (% of starting absorbance) ([1]; 23CPPA 10 micromolar, 3 minutes): 53 % of starting absorbance | Decay (% of starting absorbance) ([1]; 23CPPA 10 micromolar, 4 minutes): 52 % of starting absorbance | Decay (% of starting absorbance) ([1]; 23CPPA 10 micromolar, 5 minutes): 51 % of starting absorbance | Decay (% of starting absorbance) ([1]; 23CPPA 10 micromolar, 6 minutes): 50 % of starting absorbance | Decay (% of starting absorbance) ([1]; 23CPPA 10 micromolar, 7 minutes): 48 % of starting absorbance | Decay (% of starting absorbance) ([1]; 23CPPA 10 micromolar, 8 minutes): 47 % of starting absorbance | Decay (% of starting absorbance) ([1]; 23CPPA 10 micromolar, 9 minutes): 46 % of starting absorbance | Decay (% of starting absorbance) ([1]; 23CPPA 10 micromolar, 10 minutes): 44 % of starting absorbance | Decay (% of starting absorbance) ([1]; 23CPPA 10 micromolar, 11 minutes): 44 % of starting absorbance | Decay (% of starting absorbance) ([1]; 23CPPA 10 micromolar, 12 minutes): 43 % of starting absorbance | Decay (% of starting absorbance) ([1]; 23CPPA 10 micromolar, 13 minutes): 43 % of starting absorbance | Decay (% of starting absorbance) ([1]; 23CPPA 10 micromolar, 14 minutes): 42 % of starting absorbance | Decay (% of starting absorbance) ([1]; 23CPPA 10 micromolar, 15 minutes): 42 % of starting absorbance | Decay (% of starting absorbance) ([1]; 23CPPA 20 micromolar, 1 minute): 37 % of starting absorbance | Decay (% of starting absorbance) ([1]; 23CPPA 20 micromolar, 2 minutes): 27 % of starting absorbance | Decay (% of starting absorbance) ([1]; 23CPPA 20 micromolar, 3 minutes): 23 % of starting absorbance | Decay (% of starting absorbance) ([1]; 23CPPA 20 micromolar, 4 minutes): 20 % of starting absorbance | Decay (% of starting absorbance) ([1]; 23CPPA 20 micromolar, 5 minutes): 17 % of starting absorbance | Decay (% of starting absorbance) ([1]; 23CPPA 20 micromolar, 6 minutes): 14 % of starting absorbance | Decay (% of starting absorbance) ([1]; 23CPPA 20 micromolar, 7 minutes): 13 % of starting absorbance | Decay (% of starting absorbance) ([1]; 23CPPA 20 micromolar, 8 minutes): 12 % of starting absorbance | Decay (% of starting absorbance) ([1]; 23CPPA 20 micromolar, 9 minutes): 12 % of starting absorbance | Decay (% of starting absorbance) ([1]; 23CPPA 20 micromolar, 10 minutes): 11 % of starting absorbance | Decay (% of starting absorbance) ([1]; 23CPPA 20 micromolar, 11 minutes): 10 % of starting absorbance | Decay (% of starting absorbance) ([1]; 23CPPA 20 micromolar, 12 minutes): 10 % of starting absorbance | Decay (% of starting absorbance) ([1]; 23CPPA 20 micromolar, 13 minutes): 9 % of starting absorbance | Decay (% of starting absorbance) ([1]; 23CPPA 20 micromolar, 14 minutes): 9 % of starting absorbance | Decay (% of starting absorbance) ([1]; 23CPPA 20 micromolar, 15 minutes): 9 % of starting absorbance | Decay (% of starting absorbance) ([1]; 23CPPA 40 micromolar, 1 minute): 20 % of starting absorbance | Decay (% of starting absorbance) ([1]; 23CPPA 40 micromolar, 2 minutes): 20 % of starting absorbance | Decay (% of starting absorbance) ([1]; 23CPPA 40 micromolar, 3 minutes): 3 % of starting absorbance | Decay (% of starting absorbance) ([1]; 23CPPA 40 micromolar, 4 minutes): 1 % of starting absorbance | Decay (% of starting absorbance) ([1]; 23CPPA 40 micromolar, 5 minutes): 0 % of starting absorbance | Decay (% of starting absorbance) ([1]; 23CPPA 40 micromolar, 6 minutes): 0 % of starting absorbance | Decay (% of starting absorbance) ([1]; 23CPPA 40 micromolar, 7 minutes): 0 % of starting absorbance | Decay (% of starting absorbance) ([1]; 23CPPA 40 micromolar, 8 minutes): 0 % of starting absorbance | Decay (% of starting absorbance) ([1]; 23CPPA 40 micromolar, 9 minutes): 0 % of starting absorbance | Decay (% of starting absorbance) ([1]; 23CPPA 40 micromolar, 10 minutes): 0 % of starting absorbance | Decay (% of starting absorbance) ([1]; 23CPPA 40 micromolar, 11 minutes): 0 % of starting absorbance | Decay (% of starting absorbance) ([1]; 23CPPA 40 micromolar, 12 minutes): 0 % of starting absorbance | Decay (% of starting absorbance) ([1]; 23CPPA 40 micromolar, 13 minutes): 0 % of starting absorbance | Decay (% of starting absorbance) ([1]; 23CPPA 40 micromolar, 14 minutes): 0 % of starting absorbance | Decay (% of starting absorbance) ([1]; 23CPPA 40 micromolar, 15 minutes): 0 % of starting absorbance | Ultraviolet (UV) absorption peaks [2]: 211 nm and 283 nm | Absorbance ([2]; wavelength 190 nm): 0.5 | Absorbance ([2]; wavelength 195 nm): 0.75 | Absorbance ([2]; wavelength 197 nm): 1.0 | Absorbance ([2]; wavelength 198 nm): 1.25 | Absorbance ([2]; wavelength 199 nm): 1.5 | Absorbance ([2]; wavelength 205 nm): 2.0 | Absorbance ([2]; wavelength 208 nm): 2.1 | Absorbance ([2]; wavelength 211 nm): 2.2 | Absorbance ([2]; wavelength 212 nm): 2.0 | Absorbance ([2]; wavelength 220 nm): 1.25 | Absorbance ([2]; wavelength 222 nm): 1.0 | Absorbance ([2]; wavelength 232 nm): 0.5 | Absorbance ([2]; wavelength 235 nm): 0.45 | Absorbance ([2]; wavelength 239 nm): 0.43 | Absorbance ([2]; wavelength 243 nm): 0.43 | Absorbance ([2]; wavelength 249 nm): 0.43 | Absorbance ([2]; wavelength 252 nm): 0.43 | Absorbance ([2]; wavelength 256 nm): 0.43 | Absorbance ([2]; wavelength 260 nm): 0.5 | Absorbance ([2]; wavelength 272 nm): 0.75 | Absorbance ([2]; wavelength 283 nm): 0.93 | Absorbance ([2]; wavelength 291 nm): 0.75 | Absorbance ([2]; wavelength 300 nm): 0.5 | Absorbance ([2]; wavelength 308 nm): 0.25 | Absorbance ([2]; wavelength 325 nm): 0 | Dose dependence of brain concentrations [3]: dose proportional
